Where two headings read alike, the source gives them in different places. Blank lines part the entries; values can stand above or below the compound they belong to.
Tested on: HIV-1 NL4-3
Assay: Drug susceptibility assay in PHA-activated PBMCs (HIV p24 ELISA day 7)
Format: cell-based
Conditions: for decrease of ART EC50 value at 1 μM IM: HIV-1 NL4-3 in PBMCs, EC50 without IM vs with 1 μM IM; for EC50: Human immunodeficiency virus 1, NL43, PBMC, 168 h, HIV NL4-3 in PBMCs, p24 day 7, (95% CI) in cell; for P24: PBMCs, NL4-3, day 7
Protocol: The ARTs tenofovir, raltegravir and indinavir were obtained from the NIH AIDS Research and Reference Reagent Program (Gaithersburg, MD). Drug susceptibility assays were performed in PBMCs as previously. Briefly, donor PBMCs were activated by culture with phytohemagglutinin (PHA) for 3 days. Activated PBMCs were infected with HIV (M.O.I of 0.001) for 2 hours in the absence of IM or ARTs, washed to remove non-adsorbed virus, and plated in culture medium containing IL-2 and various dilutions of IM and ARTs alone and in combination. On day 3, fresh medium with fresh drug was added to the cultures. On day 7, cultures were evaluated for HIV production by measuring HIV p24 levels in the culture supernatants by ELISA (PerkinElmer Life Sciences, Inc., Boston, Massachusetts). Data were normalized to p24 levels in drug untreated controls (100%) and EC50 values determined by fitting the data to sigmoidal dose-response (variable slope) curves using GraphPad Prism 5.0 software.
A potential use of CDK9 inhibitor for the treatment of HIV will probably be in combination with ARTs from other classes. We thus evaluated the antiviral interaction between IM and ARTs from the NRTI, integrase and protease inhibitor classes in PBMCs infectivity assays in vitro. We used the virus strain HIV-1 NL4-3 to ensure a robust viral replication in the assays. Although HIV-1 NL4-3 differs from HIV-1 BaL in usage of coreceptor for cell entry, it is expected to have similar sensitivity to the tested ARTs. […] These enhancements of ART potencies by IM are consistent with targeting of different steps of the HIV cycle by IM and the tested ARTs.

[1] = read-out: Geometric mean ART EC50, + 1μM IM
[2] = read-out: Geometric mean ART EC50, No IM

decrease of ART EC50 value at 1 μM IM: 2.2 fold
EC50 (+ 1μM IM, read-out: Geometric mean ART EC50): 3.55 nM
EC50 (No IM, read-out: Geometric mean ART EC50): 7.74 nM
Compound: CC(C)(C)NC(=O)[C@@H]1CN(Cc2cccnc2)CCN1C[C@@H](O)C[C@@H](Cc1ccccc1)C(=O)N[C@H]1c2ccccc2C[C@H]1O [IND, indinavir]
P24 (IND 1.8 nM, + IM): 2.00 ng/mL
P24 (IND 1.8 nM, No IM): 41.00 ng/mL
P24 (IND 5.5 nM, + IM): 2.30 ng/mL
P24 (IND 5.5 nM, No IM): 37.00 ng/mL
P24 (IND 16.6 nM, + IM): 0.70 ng/mL
P24 (IND 16.6 nM, No IM): 17.00 ng/mL
P24 (IND 50 nM, + IM): 0.01 ng/mL
P24 (IND 50 nM, No IM): 0.01 ng/mL
P24 (IND 150 nM, + IM): 0.01 ng/mL
P24 (IND 150 nM, No IM): 0.01 ng/mL

Compound: C[C@H](Cn1cnc2c(N)ncnc21)OCP(=O)(O)O [TDF, tenofovir]
decrease of ART EC50 value at 1 μM IM: 3 fold
EC50 [1]: 190 nM
EC50 [2]: 600 nM
P24 (TDF 0.01 µM, + IM): 10.0 ng/mL
P24 (TDF 0.01 µM, No IM): 63.0 ng/mL
P24 (TDF 0.03 µM, + IM): 9.0 ng/mL
P24 (TDF 0.03 µM, No IM): 61.0 ng/mL
P24 (TDF 0.1 µM, + IM): 6.6 ng/mL
P24 (TDF 0.1 µM, No IM): 48.0 ng/mL
P24 (TDF 0.3 µM, + IM): 3.8 ng/mL
P24 (TDF 0.3 µM, No IM): 35.0 ng/mL
P24 (TDF 1 µM, + IM): 1.7 ng/mL
P24 (TDF 1 µM, No IM): 17.0 ng/mL
P24 (TDF 3 µM, + IM): 0.7 ng/mL
P24 (TDF 3 µM, No IM): 4.0 ng/mL
P24 (TDF 10 µM, + IM): 0.3 ng/mL
P24 (TDF 10 µM, No IM): 0.6 ng/mL

Compound: Cc1nnc(C(=O)NC(C)(C)c2nc(C(=O)NCc3ccc(F)cc3)c(O)c(=O)n2C)o1 [RAL, raltegravir]
decrease of ART EC50 value at 1 μM IM: 3.3 fold
EC50 [1]: 2.12 nM
EC50 [2]: 6.98 nM
P24 (RAL 0.05 nM, + IM): 9.50 ng/mL
P24 (RAL 0.05 nM, No IM): 27.0 ng/mL
P24 (RAL 0.15 nM, + IM): 6.00 ng/mL
P24 (RAL 0.15 nM, No IM): 23.0 ng/mL
P24 (RAL 0.5 nM, + IM): 6.50 ng/mL
P24 (RAL 0.5 nM, No IM): 27.0 ng/mL
P24 (RAL 1.5 nM, + IM): 5.00 ng/mL
P24 (RAL 1.5 nM, No IM): 26.0 ng/mL
P24 (RAL 5 nM, + IM): 2.30 ng/mL
P24 (RAL 5 nM, No IM): 17.0 ng/mL
P24 (RAL 15 nM, + IM): 1.10 ng/mL
P24 (RAL 15 nM, No IM): 2.8 ng/mL
P24 (RAL 45 nM, + IM): 0.01 ng/mL
P24 (RAL 45 nM, No IM): 0.6 ng/mL
